Assay results from patent EP0093620A1, “Fungicidal N-phenylcarbamates” (priority 1982, dated 1983).

How the values were obtained:
[1] = test system: drug-resistant strain of Venturia nashicola; assay: Preventive effect on scab of pear, drug-resistant strain; settings: 200 ppm active ingredient, pear seedlings, spray
Protocol: (§1) The leaves examined were measured for a percentage of infected area and classified into the corresponding disease indices, 0, 0.5, 1, 2, 4:
(§2) The disease severity was calculated according to the following equation: [formula]
(§3) The prevention value was calculated according to the following equation: [formula]
(§4) A plastic pot of 90 ml volume was filled with sandy soil, and seeds of pear (var: Chojuro) were sowed . therein. Cultivation was carried out in a greenhouse for 20 days. Onto the resulting seedlings, the test compound formulated in emulsifiable concentrate or wettable powder and diluted with water was sprayed at a rate of 10 ml per pot. Then, the seedlings were inoculated with a spore suspension of the drug-resistant or drug-sensitive strain of Venturia nashicola by spraying. The resulting plants were placed at 20°C under a condition of high humidity for 3 days and then at 20°C under irradiation with a fluorescent lamp for 20 days.

[2] = test system: drug-sensitive strain of Venturia nashicola; assay: Preventive effect on scab of pear, drug-sensitive strain; settings: 200 ppm active ingredient, pear seedlings, spray
Protocol: as §1, §2, §3, §4

[3] = test system: drug-resistant strain of Botrytis cinerea; assay: Preventive effect on gray mold of cucumber, drug-resistant strain; settings: 200 ppm active ingredient, cucumber seedlings, mycelial disks, 3 days
Protocol: as §1, §2, §3
(§5) Preventive effect on gray mold of cucumber (Botrytis cinerea):-
(§6) Plastic pots of 90 ml volume were filled with sandy soil, and seeds of cucumber (var: Sagami-hanjiro) were sowed therein. Cultivation was carried out in a greenhouse for 8 days to obtain cucumber seedlings expanding cotyledons. Onto the resulting seedlings, the test compound formulated in emulsifiable concentrate or wettable powder and diluted with water was sprayed at a rate of 10 ml per pot. After air-drying, the seedlings were inoculated with mycelial disks (5 mm in diameter) of the drug-resistant or drug-sensitive strain of Botrytis cinerea by putting them on the leaf surfaces. After the plants were infected by incubating under high humidity at 20°C for 3 days, the rates of disease severity were observed.

[4] = test system: drug-sensitive strain of Botrytis cinerea; assay: Preventive effect on gray mold of cucumber, drug-sensitive strain; settings: 200 ppm active ingredient, cucumber seedlings, mycelial disks, 3 days
Protocol: as §1, §2, §3, §5, §6

[5] = test system: drug-resistant strain of Sphaerotheca fuliginea; settings: for pest or weed control at 200 ppm: Podosphaera fuliginea, in Cucumis sativus, topical, 240 h, read-out: Prevention value when inoculated with drug-resistant strain; for Prevention value when inoculated with drug-resistant strain: 200 ppm active ingredient, cucumber seedlings, spray, 10 days after inoculation
Protocol: (§7) Protective activity test on powdery mildew of cucumber (Sphaerotheca fuliginea):-
(§8) A flower pot of 90 ml volume was filed with sandy soil, and seeds of cucumber (var: Sagami-hanjiro) were sowed therein. Cultivation was carried out in a greenhouse for 8 days. Onto the resulting seedlings having cotyledons, the test compound formulated in emulsifiable concentrate or wettable powder and diluted with water was sprayed at a rate of 10 ml per pot. Then, the seedlings were inoculated with a spore suspension of the drug-resistant or drug-sensitive strain of Sphaerotheca fuliginea by spraying and further cultivated in the greenhouse. Ten days thereafter, the infectious state of-the plants was observed.
as §1, §2, §3

[6] = test system: drug-sensitive strain of Sphaerotheca fuliginea; settings: for pest or weed control at 200 ppm: Podosphaera fuliginea, in Cucumis sativus, topical, 240 h, read-out: Prevention value when inoculated with drug-sensitive strain; for Prevention value when inoculated with drug-sensitive strain: 200 ppm active ingredient, cucumber seedlings, spray, 10 days after inoculation
Protocol: as §7, §8, §1, §2, §3

[7] = test system: drug-resistant strain of Cercospora beticola; settings: for pest or weed control at 200 ppm: Cercospora beticola, in Beta vulgaris, topical, 240 h, read-out: Prevention value when inoculated with drug-resistant strain; for Prevention value when inoculated with drug-resistant strain: 200 ppm active ingredient, sugarbeet seedlings, spray, 10 days
Protocol: as §1, §2, §3
(§9) Preventive effect on cercospora leaf spot of sugarbeet (Cercospora beticola):-A flower pot of 90 ml volume was filled with sandy soil, and seeds of sugarbeet (var: Detroit dark red) were sowed therein. Cultivation was carried out in a greenhouse for 20 days. Onto the resulting seedlings, the test compound formulated in emulsifiable concentrate or wettable powder and diluted with water was sprayed at a rate of 10 ml per pot. Then, the seedlings were inoculated with a spore suspension of the drug-resistant or drug-sensitive strain of Cercospora beticola by spraying. The pot was covered with a polyvinyl chloride sheet to make a condition of high humidity, and cultivation was continued in the greenhouse for 10 days.

[8] = test system: drug-sensitive strain of Cercospora beticola; settings: for pest or weed control at 200 ppm: Cercospora beticola, in Beta vulgaris, topical, 240 h, read-out: Prevention value when inoculated with drug-sensitive strain; for Prevention value when inoculated with drug-sensitive strain: 200 ppm active ingredient, sugarbeet seedlings, spray, 10 days
Protocol: as §1, §2, §3, §9

Pyricularia oryzae = settings: in vivo

Row | Structure (SMILES) | Prevention value when inoculated with drug-resistant strain [1] [%] | Prevention value when inoculated with drug-sensitive strain [2] [%] | Prevention value when inoculated with drug-resistant strain [3] [%] | Prevention value when inoculated with drug-sensitive strain [4] [%] | pest or weed control at 200 ppm [5] [%] | pest or weed control at 200 ppm [6] [%] | pest or weed control at 200 ppm [7] [%] | pest or weed control at 200 ppm [8] [%] | Prevention value when inoculated with drug-resistant strain [5] [%] | Prevention value when inoculated with drug-sensitive strain [6] [%] | Prevention value when inoculated with drug-resistant strain [7] [%] | Prevention value when inoculated with drug-sensitive strain [8] [%] | Prevention value (Pyricularia oryzae) [%]
1 | CCCCNC(=O)n1c(NC(=O)OC)nc2ccccc21 [A, Methyl 1-(butyl-carbamoyl)benz-imidazol-2-yl-carbamate] | 0 | 100 | 0 | 100 | 0 | 100 | 0 | 100 |  |  |  |  | 
2 | O=C(Nc1cccc(Cl)c1)OCC#CCCl [Barban, 4-chloro-2-butynyl N-(3-chlorophenyl)carbamate] |  |  |  |  | 25 | 0 | 34 | 0 |  |  |  |  | 
3 | COC(=O)Nc1nc2ccccc2[nH]1 [C, Methyl benzimidazol-2-ylcarbamate] |  |  |  |  | 0 | 100 | 0 | 100 |  |  |  |  | 
4 | O=C(Nc1cccc(Cl)c1)OCCCl [CEPC] |  |  |  |  |  |  |  |  | 0 | 0 | 0 | 0 | 
5 | C#CC(C)OC(=O)Nc1cccc(Cl)c1 (stereo not drawn) [Chlorbufam, 1-methyl-2-propynyl N-(3-chlorophenyl)carbamate] |  |  |  |  | 0 | 100 | 0 | 100 |  |  |  |  | 
6 | CC(C)OC(=O)Nc1cccc(Cl)c1 [Chlorpropham, isopropyl N-(3-chlorophenyl)carbamate] |  |  |  |  | 0 | 0 | 0 | 0 |  |  |  |  | 
7 | CCOc1ccc(NC(=O)OC(C)C)cc1CC [Compound No. 50, isopropyl N-(3-ethyl-4-ethoxyphenyl)carbamate] | 98 | 0 | 100 | 0 | 100 | 0 | 100 | 0 |  |  |  |  | 
8 | CCOc1ccc(N(C(=O)OC(C)C)C(=O)c2ccccc2)cc1COC [Compound No. 134, isopropyl N-benzoyl-N-(3-methoxymethyl-4-ethoxyphenyl)carbamate] |  |  | 100 | 0 |  |  |  |  |  |  |  |  | 
9 | COC(=O)NC(=S)Nc1ccccc1NC(=S)NC(=O)OC [E, 1,2-Bis(3-methoxy-carbonyl-2-thio-ureido)benzene] | 0 | 100 | 0 | 100 | 0 | 100 | 0 | 100 |  |  |  |  | 
10 | CCOP(=O)(Sc1ccccc1)Sc1ccccc1 [Edifenphos] |  |  |  |  |  |  |  |  |  |  |  |  | 97
11 | CC(C)OC(=O)Nc1ccccc1 [Propham, isopropyl N-phenylcarbamate] |  |  |  |  | 0 | 0 | 0 | 0 |  |  |  |  | 
12 | COC(=O)Nc1ccc(Cl)c(Cl)c1 [Swep] |  |  |  |  |  |  |  |  | 0 | 0 | 0 | 0 | 
13 | CCOc1ccc(NC(=O)OC(C)C)cc1COC [compound 77, isopropyl N-(3-methoxymethyl-4-ethoxyphenyl)carbamate] | 100 | 0 | 100 | 0 | 100 | 0 | 100 | 0 |  |  |  |  | 
